Reference: patent US20100041089A1, “IMPROVED METHOD FOR DETECTING CHEMICAL […]” (priority 2006, published 2010)

System: yeast genes (expressed mRNA)
Test: DNA chip measurement of expressed mRNA of yeast genes after culture with a toxic chemical substance
Type: cell-based, Saccharomyces cerevisiae S288C
Method in brief: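 Each expression value is the mRNA level in chemical-treated yeast divided by that in untreated yeast, from Cy3/Cy5 fluorescence on a whole-genome chip. Log-phase S288C cells in YPD at 25° C had received a sublethal, growth-inhibiting dose for two hours. Intensity denotes control expression relative to the all-gene mean.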

## CCCCCCCCCCCCOS(=O)(=O)[O-].[Na+] [(18), Sodium lauryl sulfate]
Yeast gene YAL053W, cultured two hours with substance
  The level of expressed mRNA in the presence of chemical substance/The level of expressed mRNA in the absence of chemical substance: 1.6
Yeast gene YAR028W, cultured two hours with substance
  The level of expressed mRNA in the presence of chemical substance/The level of expressed mRNA in the absence of chemical substance: 2.1
Yeast gene YAR031W, cultured two hours with substance
  The level of expressed mRNA in the presence of chemical substance/The level of expressed mRNA in the absence of chemical substance: 2.5
Yeast gene YBL048W, cultured two hours with substance
  The level of expressed mRNA in the presence of chemical substance/The level of expressed mRNA in the absence of chemical substance: 1.0
Yeast gene YBL057C, cultured two hours with substance
  The level of expressed mRNA in the presence of chemical substance/The level of expressed mRNA in the absence of chemical substance: 1.2
Yeast gene YBL107C, cultured two hours with substance
  The level of expressed mRNA in the presence of chemical substance/The level of expressed mRNA in the absence of chemical substance: 1.4
Yeast gene YBR005W, cultured two hours with the substance
  The level of expressed mRNA in the presence of chemical substance/The level of expressed mRNA in the absence of chemical substance: 4.6
Yeast gene YCL035C (detoxification protein gene)
  The level of expressed mRNA in the presence of chemical substance/The level of expressed mRNA in the absence of chemical substance: 4.2
Yeast gene YCL035C (stress protein genes)
  The level of expressed mRNA in the presence of chemical substance/The level of expressed mRNA in the absence of chemical substance: 4.2
Yeast gene YCR015C, cultured two hours with the chemical substance
  The level of expressed mRNA in the presence of chemical substance/The level of expressed mRNA in the absence of chemical substance: 1.2
Yeast gene YDL072C, cultured two hours with substance
  The level of expressed mRNA in the presence of chemical substance/The level of expressed mRNA in the absence of chemical substance: 2.8
Yeast gene YDL110C, cultured two hours with substance
  The level of expressed mRNA in the presence of chemical substance/The level of expressed mRNA in the absence of chemical substance: 4.4
Yeast gene YDL204W, cultured two hours with substance
  The level of expressed mRNA in the presence of chemical substance/The level of expressed mRNA in the absence of chemical substance: 2.7
Yeast gene YDL222C, cultured two hours with substance
  The level of expressed mRNA in the presence of chemical substance/The level of expressed mRNA in the absence of chemical substance: 1.3
Yeast gene YDR018C, cultured two hours with substance
  The level of expressed mRNA in the presence of chemical substance/The level of expressed mRNA in the absence of chemical substance: 1.2
Yeast gene YDR031W, cultured two hours with substance
  The level of expressed mRNA in the presence of chemical substance/The level of expressed mRNA in the absence of chemical substance: 2.5
Yeast gene YDR070C, cultured two hours with substance
  The level of expressed mRNA in the presence of chemical substance/The level of expressed mRNA in the absence of chemical substance: 3.1
Yeast gene YDR330W, cultured two hours with substance
  The level of expressed mRNA in the presence of chemical substance/The level of expressed mRNA in the absence of chemical substance: 1.3
Yeast gene YDR350C, cultured two hours with substance
  The level of expressed mRNA in the presence of chemical substance/The level of expressed mRNA in the absence of chemical substance: 1.2
Yeast gene YDR391C, cultured two hours with substance
  The level of expressed mRNA in the presence of chemical substance/The level of expressed mRNA in the absence of chemical substance: 2.4
Yeast gene YDR411C, cultured two hours with substance
  The level of expressed mRNA in the presence of chemical substance/The level of expressed mRNA in the absence of chemical substance: 1.3
Yeast gene YDR482C, cultured two hours with substance
  The level of expressed mRNA in the presence of chemical substance/The level of expressed mRNA in the absence of chemical substance: 1.2
Yeast gene YDR486C, cultured two hours with substance
  The level of expressed mRNA in the presence of chemical substance/The level of expressed mRNA in the absence of chemical substance: 1.7
Yeast gene YDR511W, cultured two hours with substance
  The level of expressed mRNA in the presence of chemical substance/The level of expressed mRNA in the absence of chemical substance: 1.5
Yeast gene YDR531W, cultured two hours with substance
  The level of expressed mRNA in the presence of chemical substance/The level of expressed mRNA in the absence of chemical substance: 1.2
Yeast gene YDR545W, cultured two hours with substance
  The level of expressed mRNA in the presence of chemical substance/The level of expressed mRNA in the absence of chemical substance: 0.9
Yeast gene YEL001C, cultured two hours with substance
  The level of expressed mRNA in the presence of chemical substance/The level of expressed mRNA in the absence of chemical substance: 1.3
Yeast gene YER004W, cultured two hours with substance
  The level of expressed mRNA in the presence of chemical substance/The level of expressed mRNA in the absence of chemical substance: 1.2
Yeast gene YER035W, cultured two hours with substance
  The level of expressed mRNA in the presence of chemical substance/The level of expressed mRNA in the absence of chemical substance: 2.1
Yeast gene YER038C, cultured two hours with substance
  The level of expressed mRNA in the presence of chemical substance/The level of expressed mRNA in the absence of chemical substance: 1.4
Yeast gene YER079W, cultured two hours with substance
  The level of expressed mRNA in the presence of chemical substance/The level of expressed mRNA in the absence of chemical substance: 1.6
Yeast gene YER106W, cultured two hours with substance
  The level of expressed mRNA in the presence of chemical substance/The level of expressed mRNA in the absence of chemical substance: 0.8
Yeast gene YER158C, cultured two hours with substance
  The level of expressed mRNA in the presence of chemical substance/The level of expressed mRNA in the absence of chemical substance: 1.2
Yeast gene YER163C, cultured two hours with substance
  The level of expressed mRNA in the presence of chemical substance/The level of expressed mRNA in the absence of chemical substance: 1.2
Yeast gene YER175C, cultured two hours with substance
  The level of expressed mRNA in the presence of chemical substance/The level of expressed mRNA in the absence of chemical substance: 1.2
Yeast gene YFL006W, cultured two hours with substance
  The level of expressed mRNA in the presence of chemical substance/The level of expressed mRNA in the absence of chemical substance: 0.8
Yeast gene YFL010C, cultured two hours with substance
  The level of expressed mRNA in the presence of chemical substance/The level of expressed mRNA in the absence of chemical substance: 1.6
Yeast gene YFL014W, DNA repair protein genes, cultured two hours with substance
  The level of expressed mRNA in the presence of chemical substance/The level of expressed mRNA in the absence of chemical substance: 8.8
Yeast gene YFL024C, cultured two hours with substance
  The level of expressed mRNA in the presence of chemical substance/The level of expressed mRNA in the absence of chemical substance: 0.8
Yeast gene YFL032W, cultured two hours with substance
  The level of expressed mRNA in the presence of chemical substance/The level of expressed mRNA in the absence of chemical substance: 0.8
Yeast gene YFR046C, cultured two hours with substance
  The level of expressed mRNA in the presence of chemical substance/The level of expressed mRNA in the absence of chemical substance: 1.2
Yeast gene YGL006W (transport facilitation protein gene)
  The level of expressed mRNA in the presence of chemical substance/The level of expressed mRNA in the absence of chemical substance: 4.1
Yeast gene YGL037C, cultured two hours with substance
  The level of expressed mRNA in the presence of chemical substance/The level of expressed mRNA in the absence of chemical substance: 2.6
Yeast gene YGL047W, cultured two hours with substance
  The level of expressed mRNA in the presence of chemical substance/The level of expressed mRNA in the absence of chemical substance: 1.2
Yeast gene YGL053W, cultured two hours with substance
  The level of expressed mRNA in the presence of chemical substance/The level of expressed mRNA in the absence of chemical substance: 3.7
Yeast gene YGL121C, cultured two hours with substance
  The level of expressed mRNA in the presence of chemical substance/The level of expressed mRNA in the absence of chemical substance: 3.5
Yeast gene YGL136C, cultured two hours with substance
  The level of expressed mRNA in the presence of chemical substance/The level of expressed mRNA in the absence of chemical substance: 1.1
Yeast gene YGL199C, cultured two hours with substance
  The level of expressed mRNA in the presence of chemical substance/The level of expressed mRNA in the absence of chemical substance: 1.0
Yeast gene YGR008C, cultured for two hours with substance
  The level of expressed mRNA in the presence of chemical substance/The level of expressed mRNA in the absence of chemical substance: 4.2
Yeast gene YGR026W, cultured two hours with the chemical substance
  The level of expressed mRNA in the presence of chemical substance/The level of expressed mRNA in the absence of chemical substance: 1.2
Yeast gene YGR035C, cultured two hours with substance
  The level of expressed mRNA in the presence of chemical substance/The level of expressed mRNA in the absence of chemical substance: 4.3
Yeast gene YGR101W, cultured two hours with substance
  The level of expressed mRNA in the presence of chemical substance/The level of expressed mRNA in the absence of chemical substance: 1.1
Yeast gene YGR110W, cultured two hours with substance
  The level of expressed mRNA in the presence of chemical substance/The level of expressed mRNA in the absence of chemical substance: 2.1
Yeast gene YGR130C, cultured two hours with substance
  The level of expressed mRNA in the presence of chemical substance/The level of expressed mRNA in the absence of chemical substance: 1.6
Yeast gene YGR154C, cultured two hours with substance
  The level of expressed mRNA in the presence of chemical substance/The level of expressed mRNA in the absence of chemical substance: 1.2
Yeast gene YGR213C
  The level of expressed mRNA in the presence of chemical substance/The level of expressed mRNA in the absence of chemical substance: 8.5
Yeast gene YGR221C, cultured two hours with substance
  The level of expressed mRNA in the presence of chemical substance/The level of expressed mRNA in the absence of chemical substance: 1.3
Yeast gene YGR244C, cultured for two hours with substance
  The level of expressed mRNA in the presence of chemical substance/The level of expressed mRNA in the absence of chemical substance: 3.1
Yeast gene YHR029C, cultured two hours with substance
  The level of expressed mRNA in the presence of chemical substance/The level of expressed mRNA in the absence of chemical substance: 2.1
Yeast gene YHR138C, cultured two hours with substance
  The level of expressed mRNA in the presence of chemical substance/The level of expressed mRNA in the absence of chemical substance: 7.1
Yeast gene YHR199C, cultured two hours with substance
  The level of expressed mRNA in the presence of chemical substance/The level of expressed mRNA in the absence of chemical substance: 0.9
Yeast gene YIL023C, cultured two hours with substance
  The level of expressed mRNA in the presence of chemical substance/The level of expressed mRNA in the absence of chemical substance: 1.0
Yeast gene YIL024C, cultured two hours with substance
  The level of expressed mRNA in the presence of chemical substance/The level of expressed mRNA in the absence of chemical substance: 1.0
Yeast gene YIL041W, cultured two hours with substance
  The level of expressed mRNA in the presence of chemical substance/The level of expressed mRNA in the absence of chemical substance: 1.1
Yeast gene YIL087C, cultured two hours with substance
  The level of expressed mRNA in the presence of chemical substance/The level of expressed mRNA in the absence of chemical substance: 1.6
Yeast gene YIL117C, cultured two hours with substance
  The level of expressed mRNA in the presence of chemical substance/The level of expressed mRNA in the absence of chemical substance: 2.6
Yeast gene YJL057C, cultured two hours with substance
  The level of expressed mRNA in the presence of chemical substance/The level of expressed mRNA in the absence of chemical substance: 1.5
Yeast gene YJL066C, cultured two hours with substance
  The level of expressed mRNA in the presence of chemical substance/The level of expressed mRNA in the absence of chemical substance: 1.5
Yeast gene YJL082W, cultured two hours with substance
  The level of expressed mRNA in the presence of chemical substance/The level of expressed mRNA in the absence of chemical substance: 0.3
Yeast gene YJL108C, cultured two hours with substance
  The level of expressed mRNA in the presence of chemical substance/The level of expressed mRNA in the absence of chemical substance: 0.9
Yeast gene YJL149W, cultured two hours with substance
  The level of expressed mRNA in the presence of chemical substance/The level of expressed mRNA in the absence of chemical substance: 1.2
Yeast gene YJL151C, cultured two hours with substance
  The level of expressed mRNA in the presence of chemical substance/The level of expressed mRNA in the absence of chemical substance: 2.4
Yeast gene YJL152W, cultured two hours with substance
  The level of expressed mRNA in the presence of chemical substance/The level of expressed mRNA in the absence of chemical substance: 1.7
Yeast gene YJL161W, cultured two hours with substance
  The level of expressed mRNA in the presence of chemical substance/The level of expressed mRNA in the absence of chemical substance: 2.1
Yeast gene YJL166W, mitochondria-located protein gene, cultured two hours with substance
  The level of expressed mRNA in the presence of chemical substance/The level of expressed mRNA in the absence of chemical substance: 4.0
Yeast gene YJL171C, cultured two hours with substance
  The level of expressed mRNA in the presence of chemical substance/The level of expressed mRNA in the absence of chemical substance: 2.9
Yeast gene YJL186W, cultured two hours with substance
  The level of expressed mRNA in the presence of chemical substance/The level of expressed mRNA in the absence of chemical substance: 0.8
Yeast gene YJR008W, cultured two hours with substance
  The level of expressed mRNA in the presence of chemical substance/The level of expressed mRNA in the absence of chemical substance: 2.7
